# Assay results published in patent publication US8680251B2, “Triterpenoid 2-deoxy glycosides, method of preparation thereof and use thereof as medicaments” (Univerzita Palackeho V Olomouci, priority 2008, dated 2014).
# Columns and labels:
# [1] = test system: HCT116 p53wt (human colorectal adenocarcinoma, wild-type p53); assay: Cytotoxic MTT test, HCT116 p53wt; assay type: cell-based; details: 72 h
# Description: (§1) Cytotoxic MTT test on cell lines derived from normal tissues and tumors were used for assessing the antitumor activity of the novel compounds in vitro. We used namely the lines K562 (human myeloid leukemia), K562-tax (human myeloid leukemia resistant to taxol and overexpressing the protein of multiple drug resistance PgP), CEM (T-lymfoblastic leukemia), CEM-DNR-bulk (T-lymfoblastic leukemia resistant to doxorubicin, lacking the expression of the target gene for topoisomerase II alfa inhibitors and expressing the multiple drug resistance protein MRP1), line A549 (human lung adenocarcinoma), line HT-29 (human colorectal adenocarcinoma), MCF-7 (human breast adenocarcinoma, p53 wild type), HCT116 p53wt (human colorectal adenocarcinoma, wild-type p53), HCT116 p53mut (human colorectal adenocarcinoma with mutated p53), U87Mg (human glioblastoma). Expression characteristics, sensitivity profiles to classical antitumor drugs and methodology of the cytotoxic MTT test were repeatedly published (Nosková V. et al., Neoplasma 2002, S arek J. et al., J. Med. Chem., 2003, Dzubák P. et al., Bioorg. Med. Chem., 2006).
# (§2) The MTT test was carried out according to the following procedure. The tested compound in six dilutions (final concentration of 250 μmol/l, another five concentrations were obtained by 4-fold, 16-fold, 64-fold, 256-fold and 1024-fold dilution of this solution) was added to tissue culture of cells in the cultivation plate wells. Each concentration was tested in doublet. The cell suspension was incubated in the environment containing the tested compound for 72 h at 37° C., in 5% CO2 atmosphere and 100% humidity. MTT—[3-(4,5-dimethylthiazol-2-yl)-2,5-difenyl-2H-tetrazolium bromid]—was then added to each well and the incubation was continued for additional 4 h. The incubation was finished by an addition of sodium dodecansulphonate and the percentage of surviving cells was determined spectrophotometrically at 540 nm. The concentration lethal for 50% of the tumor cells—IC50—was calculated from dose-response curves.
# PC-3 = assay: Cytotoxic MTT test, PC-3; assay type: cell-based; details: PC-3 cells, 72 h
# [2] = test system: MCF-7 (human breast adenocarcinoma, p53 wild type); assay: Cytotoxic MTT test, MCF-7; assay type: cell-based; details: 72 h
# Description: as §1, §2
# [3] = test system: HCT116 p53mut (human colorectal adenocarcinoma with mutated p53); assay: Cytotoxic MTT test, HCT116 p53mut; assay type: cell-based; details: 72 h
# Description: as §1, §2
# [4] = test system: HT-29 (human colorectal adenocarcinoma); assay: Cytotoxic MTT test, HT-29; assay type: cell-based; details: HT-29 cells, 72 h
# Description: as §1, §2
# [5] = test system: CEM (T-lymfoblastic leukemia); assay: Cytotoxic MTT test, CEM; assay type: cell-based; details: CEM cells, 72 h
# Description: as §1, §2
# [6] = test system: CEM-DNR-bulk (T-lymfoblastic leukemia resistant to doxorubicin); assay: Cytotoxic MTT test, CEM-DNR-bulk; assay type: cell-based; details: CEM-DNR-BULK cells, 72 h
# Description: as §1, §2
# [7] = test system: U87Mg (human glioblastoma); assay: Cytotoxic MTT test, U87Mg; assay type: cell-based; details: U87Mg cells, 72 h
# Description: as §1, §2
# [8] = test system: K562-tax (human myeloid leukemia resistant to taxol); assay: Cytotoxic MTT test, K562-tax; assay type: cell-based; details: K562-tax cells, 72 h
# Description: as §1, §2
# [9] = test system: K562 (human myeloid leukemia); assay: Cytotoxic MTT test, K562; assay type: cell-based; details: K562 cells, 72 h
# Description: as §1, §2
# [10] = Storage stability of cyclodextrin solution; assay type: physicochemical; details: solution of 3a with 2-hydroxypropyl-γ-cyclodextrin in water/propylene glycol, freezer at −20 C, several months
# Experimental: 2-hydroxypropyl-γ-cyclodextrin (7.00 g) was dissolved under vigorous stirring and at the temperature of 50° C. in a mixture of water (14.0 ml) and propylene glycol (6.0 ml). 2-deoxy galactoside 3a (1.00 g) is then added at once into the resulting colourless viscous solution and the mixture is vigorously stirred at the temperature of 50° C. Usually, 20 min is needed for complete dissolution. After complete dissolution of the triterpenoid, the resulting bright solution is cooled down to room temperature, filtered by an injection syringe filter (hydrophilic, pore size 0.22 μm) in order to be sterile and is placed to a refrigerator. […] The thus prepared formulation can be used for oral or, after optionally adding a saline solution, for intravenous administration.
decomposition on storage [10],SMILES,IC50 ([1]; HCT116 p53wt cells),IC50 (PC-3),IC50 ([2]; MCF-7 cells),IC50 ([3]; HCT116 p53 mut cells),IC50 [4],IC50 [5],IC50 [6],IC50 [7],IC50 [8],IC50 [9],"IC50 ([1]; Homo sapiens, HCT-116, HCT116 p53wt cells)",IC50 (PC-3; Homo sapiens),"IC50 ([2]; Homo sapiens, MCF7, MCF-7 cells)","IC50 ([3]; Homo sapiens, HCT-116, HCT116 p53 mut cells)",IC50 ([4]; Homo sapiens),"IC50 ([5]; Homo sapiens, CCRF-CEM)","IC50 ([7]; Homo sapiens, U-87 MG)",IC50 ([8]; Homo sapiens),IC50 ([9]; Homo sapiens)
,CC(=O)OC[C@H]1O[C@H](OC[C@@]23CC[C@]4(C)C(CCC5[C@@]6(C)CC[C@H](OC(C)=O)C(C)(C)C6CC[C@]54C)C2=C(C(C)C)C(=O)C3)C[C@@H](OC(C)=O)[C@H]1OC(C)=O (stereo partly shown) [Compound 1a],7.9 µM,23.5 µM,11.4 µM,8.8 µM,11.4 µM,1.8 µM,12.5 µM,≥ 250 µM,9.8 µM,2.4 µM,,,,,,,,,
,CC(=O)OC[C@H]1O[C@H](OC[C@@]23CC[C@]4(C)C(CCC5[C@@]6(C)CC[C@H](OC(C)=O)C(C)(C)C6CC[C@]54C)C2=C(C(C)C)C(=O)C3)C[C@@H](OC(C)=O)[C@@H]1OC(C)=O (stereo partly shown) [Compound 1b],8.6 µM,39.3 µM,17 µM,12.4 µM,10.1 µM,9.2 µM,41.5 µM,≥ 250 µM,9.5 µM,6.4 µM,,,,,,,,,
,CC(=O)OC[C@H]1O[C@H](OC[C@@]23CC[C@]4(C)C(CCC5[C@@]6(C)CC[C@H](OC(C)=O)C(C)(C)C6CC[C@]54C)C2=C(C(C)C)C(=O)C3)C[C@@H](Br)[C@@H]1OC(C)=O (stereo partly shown) [Compound 1c],19.1 µM,≥ 250 µM,35.2 µM,14 µM,40.9 µM,3.8 µM,27 µM,≥ 250 µM,22.6 µM,9 µM,,,,,,,,,
,COC(=O)[C@@]12CC[C@]3(C)C(CCC4[C@@]5(C)CC[C@H](OC6CC(OC(C)=O)C(OC(C)=O)C(COC(C)=O)O6)C(C)(C)C5CC[C@]43C)C1=C(C(C)C)C(=O)C2 (stereo partly shown) [Compound 2b],,,,,,,25 µM,,,,1.6 µM,22.1 µM,2.5 µM,3.5 µM,2.4 µM,0.6 µM,≥ 250 µM,3 µM,0.6 µM
without any detectable decomposition,COC(=O)[C@@]12CC[C@]3(C)C(CCC4[C@@]5(C)CC[C@H](O[C@@H]6C[C@@H](O)[C@@H](O)[C@@H](CO)O6)C(C)(C)C5CC[C@]43C)C1=C(C(C)C)C(=O)C2 (stereo partly shown) [Compound 3a],10.3 µM,11.2 µM,13.6 µM,17.5 µM,17.8 µM,4.7 µM,34.4 µM,53 µM,15.9 µM,11.5 µM,,,,,,,,,
,COC(=O)[C@@]12CC[C@]3(C)C(CCC4[C@@]5(C)CC[C@H](O[C@@H]6C[C@@H](O)[C@H](O)[C@@H](CO)O6)C(C)(C)C5CC[C@]43C)C1=C(C(C)C)C(=O)C2 (stereo partly shown) [Compound 3b],11.5 µM,36.4 µM,18.4 µM,21 µM,18.9 µM,6.2 µM,25 µM,42.7 µM,12.9 µM,11.6 µM,,,,,,,,,
